Data set [1] deals with T1, NAD-dependent protein deacetylase sirtuin-2 (Homo sapiens, UniProt Q8IXJ6).
T1 sequence (Q8IXJ6 whole entry): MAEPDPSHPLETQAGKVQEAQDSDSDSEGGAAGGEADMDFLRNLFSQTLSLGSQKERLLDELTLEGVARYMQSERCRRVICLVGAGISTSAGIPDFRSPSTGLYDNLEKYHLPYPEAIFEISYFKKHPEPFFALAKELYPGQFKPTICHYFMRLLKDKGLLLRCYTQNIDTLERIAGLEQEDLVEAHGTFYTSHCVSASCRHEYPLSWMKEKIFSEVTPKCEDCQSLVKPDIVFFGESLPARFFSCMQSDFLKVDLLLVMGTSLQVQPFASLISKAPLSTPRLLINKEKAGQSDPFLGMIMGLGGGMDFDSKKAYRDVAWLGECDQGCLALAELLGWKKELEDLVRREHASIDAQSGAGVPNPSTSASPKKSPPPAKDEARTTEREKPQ
Nature of the data set: Inhibition of N-terminal His6 tagged human sirtuin 2 (25 to 389 residues) at 25 uM using Cbz-Lys(acetyl)-AMC as substrate after 4 hrs in presence of NAD+ by homogeneous fluorescence based analysis relative to control.

The target of data set [2] is T2, NAD-dependent protein deacetylase (Schistosoma mansoni) (UniProt T1VXA1).
T2 sequence (whole entry): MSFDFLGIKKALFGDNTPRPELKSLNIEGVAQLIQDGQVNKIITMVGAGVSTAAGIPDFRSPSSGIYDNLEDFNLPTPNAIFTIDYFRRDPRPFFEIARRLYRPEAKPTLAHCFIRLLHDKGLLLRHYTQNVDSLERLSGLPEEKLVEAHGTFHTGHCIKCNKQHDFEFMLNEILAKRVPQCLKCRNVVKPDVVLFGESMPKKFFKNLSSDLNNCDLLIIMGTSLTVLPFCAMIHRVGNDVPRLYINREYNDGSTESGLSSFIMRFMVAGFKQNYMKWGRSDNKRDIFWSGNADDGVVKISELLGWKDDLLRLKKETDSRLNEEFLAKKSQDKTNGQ
Nature of the data set: Inhibition of recombinant Schistosoma mansoni sirtuin 2 (21 to 322 residues) expressed in Escherichia coli BL21(DE3) cells assessed as inhibition of substrate demyristoylation at 20 uM using (Z)-(Myr)-Lys-AMC as susbtrate after 1 hr in presence of NAD+ by homogeneous fluorescence based analysis relative to control.

For data set [3], the target named is T2, NAD-dependent protein deacetylase (Schistosoma mansoni). Nature of the data set: Inhibition of recombinant Schistosoma mansoni sirtuin 2 (21 to 322 residues) expressed in Escherichia coli BL21(DE3) cells at 25 uM using ZMAL as susbtrate after 1 hr in presence of NAD+ by homogeneous fluorescence based analysis relative to control.
Data set [4] concerns the target T1, NAD-dependent protein deacetylase sirtuin-2. Nature of the data set: Inhibition of N-terminal His6 tagged human sirtuin 2 (25 to 389 residues) assessed as inhibition of substrate demyristoylation at 20 uM using (Z)-(Myr)-Lys-AMC as susbtrate after 4 hrs in presence of NAD+ by homogeneous fluorescence based analysis relative to control.
Data set [5] shares this target. Nature of the data set: Inhibition of N-terminal His6 tagged human sirtuin 2 (25 to 389 residues) at 50 uM using Cbz-Lys(acetyl)-AMC as substrate after 4 hrs in presence of NAD+ by homogeneous fluorescence based analysis relative to control.
Data set [6] addresses T3, NAD-dependent protein deacetylase (Schistosoma mansoni, UniProt T1VXA1).
T3 sequence (T1VXA1 whole entry): T2 sequence (whole entry)
Nature of the data set: Inhibition of recombinant Schistosoma mansoni sirtuin 2 (21 to 322 residues) expressed in Escherichia coli BL21(DE3) cells using ZMAL as substrate after 1 hr in presence of NAD+ by homogeneous fluorescence based analysis.

Data set [7] has as its system Schistosoma mansoni. Put plainly: Antiparasitic activity against adult Schistosoma mansoni Puerto Rico assessed as reduction in egg laying at 10 to 20 uM after 24 hrs by microscopic analysis. The class given is functional, organism-based.
Data set [8] concerns Schistosoma mansoni. Nature of the data set: Antiparasitic activity against Schistosoma mansoni Puerto Rico assessed as reduction in parasite viability at 10 to 20 uM after 72 hrs by microscopic analysis. Format: functional, organism-based.
The test system of data set [9] is HL-60. Put plainly: Cytotoxicity against human HL60 cells at 10 uM after 72 hrs by Cell titer MTS dye based analysis. To be noted: hl-60, 72 h. A general note: Tetrazolium assays rely on reduction of a dye to a coloured formazan, in cell work by metabolically active cells.
Data set [10] has as its target T1, NAD-dependent protein deacetylase sirtuin-2. Put plainly: Inhibition of N-terminal His6 tagged human sirtuin 2 (25 to 389 residues) assessed as inhibition of substrate demyristoylation using (Z)-(Myr)-Lys-AMC as susbtrate after 4 hrs in presence of NAD+ by homogeneous fluorescence based analysis.
Data set [11] has as its target T4, NAD-dependent protein deacetylase sirtuin-1 (Homo sapiens, UniProt Q96EB6).
T4 sequence (Q96EB6 whole entry): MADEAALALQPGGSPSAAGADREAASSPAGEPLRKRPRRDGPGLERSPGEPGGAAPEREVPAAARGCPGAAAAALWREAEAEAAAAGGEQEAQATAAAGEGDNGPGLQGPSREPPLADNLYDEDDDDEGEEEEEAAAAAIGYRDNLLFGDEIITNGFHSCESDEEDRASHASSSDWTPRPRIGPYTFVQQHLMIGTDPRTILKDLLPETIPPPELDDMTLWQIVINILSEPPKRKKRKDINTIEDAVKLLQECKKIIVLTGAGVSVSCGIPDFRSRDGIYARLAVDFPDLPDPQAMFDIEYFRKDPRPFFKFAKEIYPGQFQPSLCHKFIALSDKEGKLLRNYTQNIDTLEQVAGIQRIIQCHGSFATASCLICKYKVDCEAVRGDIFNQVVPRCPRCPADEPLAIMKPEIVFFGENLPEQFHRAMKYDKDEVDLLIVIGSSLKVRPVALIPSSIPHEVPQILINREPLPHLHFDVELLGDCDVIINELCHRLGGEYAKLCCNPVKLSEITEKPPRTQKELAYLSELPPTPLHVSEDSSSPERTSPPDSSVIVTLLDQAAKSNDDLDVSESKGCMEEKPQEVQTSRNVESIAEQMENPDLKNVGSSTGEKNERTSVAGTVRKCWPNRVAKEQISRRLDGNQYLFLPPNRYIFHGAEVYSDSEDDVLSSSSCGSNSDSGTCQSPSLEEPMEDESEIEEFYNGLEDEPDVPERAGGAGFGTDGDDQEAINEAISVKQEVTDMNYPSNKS
Put plainly: Inhibition of human sirtuin 1 at 25 uM relative to control.

The subject of data set [12] is Schistosoma mansoni. Put plainly: Antiparasitic activity against adult Schistosoma mansoni Puerto Rico assessed as reduction in worm pairing at 10 to 20 uM after 24 hrs by microscopic analysis. The class given is functional, organism-based.
Data set [13] deals with T5, NAD-dependent protein deacetylase sirtuin-3, mitochondrial (Homo sapiens, UniProt Q9NTG7).
T5 sequence (Q9NTG7 whole entry): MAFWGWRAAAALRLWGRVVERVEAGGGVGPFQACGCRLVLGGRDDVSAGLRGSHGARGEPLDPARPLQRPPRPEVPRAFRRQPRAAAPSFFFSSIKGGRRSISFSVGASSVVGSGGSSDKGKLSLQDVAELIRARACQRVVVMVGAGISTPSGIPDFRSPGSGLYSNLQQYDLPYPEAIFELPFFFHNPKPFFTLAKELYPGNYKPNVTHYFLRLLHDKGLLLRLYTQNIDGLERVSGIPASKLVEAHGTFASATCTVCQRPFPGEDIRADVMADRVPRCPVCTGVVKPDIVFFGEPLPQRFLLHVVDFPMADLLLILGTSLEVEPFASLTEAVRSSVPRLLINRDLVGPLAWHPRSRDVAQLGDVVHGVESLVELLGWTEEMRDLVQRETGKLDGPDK
Put plainly: Inhibition of human sirtuin 3 at 25 uM relative to control.

For data set [14], the target named is T2, NAD-dependent protein deacetylase (Schistosoma mansoni). Nature of the data set: Inhibition of recombinant Schistosoma mansoni sirtuin 2 (21 to 322 residues) expressed in Escherichia coli BL21(DE3) cells assessed as inhibition of substrate deacetylation at 20 uM using ZMAL as substrate relative to control.
Data set [15] has the same target. Nature of the data set: Inhibition of recombinant Schistosoma mansoni sirtuin 2 (21 to 322 residues) expressed in Escherichia coli BL21(DE3) cells assessed as inhibition of substrate demyristoylation at 20 uM using (Z)-(Myr)-Lys-AMC as substrate relative to control.
The target in data set [16] is T1, NAD-dependent protein deacetylase sirtuin-2. Put plainly: Inhibition of human sirutin 2 assessed as inhibition of susbtrate demyristoylation at 20 uM using (Z)-(Myr)-Lys-AMC as substrate relative to control.
Data set [17] in a line: Selectivity ratio of IC50 for N-terminal His6 tagged human sirtuin 2 (25 to 389 residues) to IC50 for recombinant Schistosoma mansoni sirtuin 2 (21 to 322 residues) expressed in Escherichia coli BL21(DE3) cells.
Data set [18] addresses T1, NAD-dependent protein deacetylase sirtuin-2. Put plainly: Inhibition of N-terminal His6 tagged human sirtuin 2 (25 to 389 residues) using Cbz-Lys(acetyl)-AMC as substrate after 4 hrs in presence of NAD+ by homogeneous fluorescence based analysis.

pIC50: −log10 of the molar value. Activity calls are given as the source filed them. The rule behind the calls is not given here. A value given as a limit tells only on which side of the number the result lay.

Take `COc1ccc(C(=O)Nc2ccc(C(C)N(C)c3ncc4c(N)nc(N)nc4n3)cc2)cc1` (stereo unspecified): the inhibition (commonly the relative decrease from the control value, in per cent) at 25 µM in data set [1] is below 15%. For the same molecule, the inhibition in [2] is below 15%; in data set [3], 41.9%. Besides, in data set [4], the inhibition at 20 µM was below 15%.

Take `O=C(c1cc2cc(Cl)ccc2[nH]1)N1CCCCC1c1cccnc1` (stereo unspecified): the inhibition at 50 µM in data set [5] is below 15%. Besides, the negative logarithm of the IC50 (pIC50) (in general, the negative decadic logarithm of the IC50, by convention in mol/L) in data set [6] was 4.74.

For `COc1cc(OC)cc(Oc2ccc(C(c3ccccc3)N(C)c3ncc4c(N)nc(N)nc4n3)cc2)c1` (stereo unspecified), the inhibition at 25 µM in [1] was 29.6%; in [11], below 15%; in data set [13], below 15%. Also, the inhibition entry in data set [7], in data set [8] and in [12] was “Active” in each case. For the same molecule, the inhibition in data set [2] was below 15%. For the same molecule, the pIC50 in data set [6] was 5.48; in data set [10] it was 4.88. The Activity result in data set [9] is listed as “Non-Toxic”.

As for `Cc1cc(C)nc(SCC(=O)Nc2ncc(Cc3cccc4ccccc34)s2)n1`, the inhibition in data set [14] and in data set [15] was below 15% each time. Moreover, in data set [16], the inhibition at 20 µM was below 15%.

In the case of `COc1cc(OC)cc(Sc2ccc(C(C)N(C)c3ncc4c(N)nc(N)nc4n3)cc2)c1` (stereo unspecified), the figures for the inhibition at 25 µM in data set [1], in [11] and in data set [13] were 27.9%, below 15% and below 15%, respectively. Further, the inhibition entry in data set [7], in data set [8] and in data set [12] was “Active” in each case. Besides, the inhibition in data set [2] amounted to 15%. In addition, the values for the pIC50 in data set [6] and in data set [10] were 5.37 and 4.60, respectively. In data set [9], the Activity result is reported as “Non-Toxic”.

Consider `CSc1ccc(Oc2ccc(C(C)N(C)c3ncc4c(N)nc(N)nc4n3)cc2)cc1` (stereo unspecified), for which, in data set [1], the inhibition at 25 µM was below 15%. The inhibition in data set [2] is below 15%; in [3], 49%. In addition, the inhibition at 20 µM in data set [4] was found to be 38.1%.

Turning to `COc1cc(OC)cc(Sc2ccc(C(c3ccccc3)N(C)c3ncc4c(N)nc(N)nc4n3)cc2)c1` (stereo unspecified), the inhibition entry in data set [7], in data set [8] and in data set [12] was “Active” each time. For the same molecule, in data set [2], the inhibition is below 15%. For the same molecule, the pIC50 in data set [6] was 5.70; in data set [10] it was 4.81; in data set [18] it was 4.67. Moreover, in data set [17], the Ratio IC50 was 10.

The values are drawn from ChEMBL document CHEMBL4321809, “Structure-Reactivity Relationships on Substrates and Inhibitors of the Lysine Deacylase Sirtuin 2 from Schistosoma mansoni (SmSirt2)” (J Med Chem, 2019).
